Test system: liver transcriptome
Assay: AmpliSeq liver transcriptome of HFD-F mice
Type: in vivo
Conditions: liver
From the text: C57BL/6J male mice were fed a high fat diet (HFD) containing 59 KJ% fat plus 1% cholesterol, w/o sugar (ssniff ® EF R/M acc. D12330 mod. 22,7 ME/kg) and fructose (HFD-F) in drinking water (42 g/L), or normal chow diet for 61 days. Food intake was estimated as the difference of weight between the offered and the remnant amount of food at 3-days intervals. The food was provided as pressed pellets and the residual spillage was not considered. After 7 days, HFD-F mice were randomized to receive HFD-F alone or in combination with compound 2 (30 mg/kg/day) by gavage until the end of the experiment. Doses of each agent were chosen according to previously published data. Mice were housed under controlled temperature (22°C) and photoperiods (12:12-h light/dark cycle), allowed unrestricted access to standard mouse chow and tap water. The experimental protocol was approved by the Animal Care and Use Committee of the University of Perugia and by the Italian Minister of Health and Istituto Superiore di Sanità (Italy) and was in agreement with the European guidelines for use of experimental animals (permission n. 583/2017-PR). The general health of the animals was monitored daily by the Veterinarian in the animal facility. At the day of sacrifice, fed mice were deeply anesthetized with a mixture of tiletamine hypochloride and zolazepam hypochloride/xylazine at a dose of 50/5 mg/kg and sacrificed before 12 a.m.
High-quality RNA was extracted from mice livers, using the Direct-zol™ RNA MiniPrep w/Zymo-Spin™ IIC Columns (Zymo Research, Irvine, CA) according to the manufacturer’s instructions. RNA quality and quantity were assessed with the Qubit® RNA HS Assay Kit and a Qubit 3.0 fluorometer (Invitrogen, Carlsbad, CA) followed by agarose gel electrophoresis. Libraries were generated using the Ion AmpliSeq™ Transcriptome Mouse Gene Expression Core Panel and Chef-Ready Kit (Comprehensive evaluation of AmpliSeq transcriptome, a whole transcriptome RNA sequencing methodology) (Thermo Fisher Scientific, Waltham, MA). Briefly, 10 ng of RNA was reverse transcribed with SuperScript™ Vilo™ cDNA Synthesis Kit (Thermo Fisher Scientific, Waltham, MA) before library preparation on the Ion Chef™ instrument (Thermo Fisher Scientific, Waltham, MA). The resulting cDNA was amplified to prepare barcoded libraries using the Ion Code™ PCR Plate, and the Ion AmpliSeq™ Transcriptome Mouse Gene Expression Core Panel (Thermo Fisher Scientific, Waltham, MA), Chef-Ready Kit, according to the manufacturer’s instructions. Barcoded libraries were combined to a final concentration of 100 p.m., and used to prepare Template-Positive Ion Sphere™ (Thermo Fisher Scientific, Waltham, MA) Particles to load on Ion 540™ Chips, using the Ion 540™ Kit-Chef (Thermo Fisher Scientific, Waltham, MA). Sequencing was performed on an Ion S5™ Sequencer with Torrent Suite™ Software v6 (Thermo Fisher Scientific, Waltham, MA). The analyses were performed with a range of fold <−2 and >+2 and a p value <0.05, using Transcriptome Analysis Console Software (version 4.0.1), certified for AmpliSeq analysis (Thermo-Fisher). The transcriptomic data have been deposited as dataset on Mendeley data repository (reference number linking to the repository: Fiorucci, Stefano; Biagioli, Michele; Marchianò, Silvia; Di Giorgio, Cristina (2021), “Discovery of potent dual GPBAR1/CysLT1R modulator for the treatment of metabolic fatty liver disease,” Mendeley Data, V1, doi: 10.17632/6dnrk9fc72.1).

- Cyp1a2 transcript Fold Change (HFD-F + compound 2 vs HFD-F): 4.77
- Cyp2a5 transcript Fold Change (HFD-F + compound 2 vs HFD-F): 2.79
- Cyp7a1 transcript Fold Change (HFD-F + compound 2 vs HFD-F): 3.98
Structure (SMILES): O=C(O)c1cccc(-c2ccc(OCc3ccc4ccccc4n3)cc2)c1 [Compound 2, 4'-(quinolin-2-ylmethoxy)-[1,1′-biphenyl]-3-carboxylic acid]
- Uhrf1 transcript Avg (log2) (HFD-F + compound 2): 0.79 log2
- Upp2 transcript Avg (log2) (HFD-F + compound 2): 9.06 log2
- Usp2 transcript Avg (log2) (HFD-F + compound 2): 5.61 log2
- Wrn transcript Avg (log2) (HFD-F + compound 2): 3.27 log2
- Zfp101 transcript Avg (log2) (HFD-F + compound 2): 1.28 log2
- Zfp445 transcript Avg (log2) (HFD-F + compound 2): 6.23 log2
- 1810011O10Rik transcript Fold Change (HFD-F + compound 2 vs HFD-F): -2.01
- 2310001K24Rik transcript Fold Change (HFD-F + compound 2 vs HFD-F): 2.31
- 2310039H08Rik transcript Fold Change (HFD-F + compound 2 vs HFD-F): -2.25
- 4833423E24Rik transcript Fold Change (HFD-F + compound 2 vs HFD-F): 2.15
- 6430573F11Rik transcript Fold Change (HFD-F + compound 2 vs HFD-F): -2.15
- AW549542 transcript Fold Change (HFD-F + compound 2 vs HFD-F): 2.59
- Abcb1a transcript Fold Change (HFD-F + compound 2 vs HFD-F): 2.07
- Acod1 transcript Fold Change (HFD-F + compound 2 vs HFD-F): -7.35
- Acot3 transcript Fold Change (HFD-F + compound 2 vs HFD-F): 2.07
- Adam8 transcript Fold Change (HFD-F + compound 2 vs HFD-F): -2.4
- Adam11 transcript Fold Change (HFD-F + compound 2 vs HFD-F): 2.06
- Anxa2 transcript Fold Change (HFD-F + compound 2 vs HFD-F): -2.16
- Apcs transcript Fold Change (HFD-F + compound 2 vs HFD-F): -2.14
- Arntl transcript Fold Change (HFD-F + compound 2 vs HFD-F): -2.68
- Arsg transcript Fold Change (HFD-F + compound 2 vs HFD-F): -2.22
- Atp1a3 transcript Fold Change (HFD-F + compound 2 vs HFD-F): -2.15
- Aurka transcript Fold Change (HFD-F + compound 2 vs HFD-F): -2.11
- Avpr1a transcript Fold Change (HFD-F + compound 2 vs HFD-F): -2.31
- Bcat1 transcript Fold Change (HFD-F + compound 2 vs HFD-F): -2.27
- C920009B18Rik transcript Fold Change (HFD-F + compound 2 vs HFD-F): -2.05
- Cabyr transcript Fold Change (HFD-F + compound 2 vs HFD-F): 2.35
- Capn11 transcript Fold Change (HFD-F + compound 2 vs HFD-F): 3.56
- Ccl2 transcript Fold Change (HFD-F + compound 2 vs HFD-F): –9.45
- Ccl3 transcript Fold Change (HFD-F + compound 2 vs HFD-F): –45.68
- Ccl4 transcript Fold Change (HFD-F + compound 2 vs HFD-F): -3.76
- Ccl7 transcript Fold Change (HFD-F + compound 2 vs HFD-F): -5.24
- Ccl9 transcript Fold Change (HFD-F + compound 2 vs HFD-F): -2.83
- Cd9 transcript Fold Change (HFD-F + compound 2 vs HFD-F): -2.05
- Cd14 transcript Fold Change (HFD-F + compound 2 vs HFD-F): -2.38
- Cd36 transcript Fold Change (HFD-F + compound 2 vs HFD-F): -2.5
- Cd63 transcript Fold Change (HFD-F + compound 2 vs HFD-F): -2.18
- Cdk1 transcript Fold Change (HFD-F + compound 2 vs HFD-F): -2.15
- Cdkl2 transcript Fold Change (HFD-F + compound 2 vs HFD-F): -2.13
- Cdkn1a transcript Fold Change (HFD-F + compound 2 vs HFD-F): -7.58
- Cdkn3 transcript Fold Change (HFD-F + compound 2 vs HFD-F): -2.22
- Ces2b transcript Fold Change (HFD-F + compound 2 vs HFD-F): 3.35
- Cetn4 transcript Fold Change (HFD-F + compound 2 vs HFD-F): 2.21
- Chka transcript Fold Change (HFD-F + compound 2 vs HFD-F): -3.91
- Chrna4 transcript Fold Change (HFD-F + compound 2 vs HFD-F): -3.1
- Cidea transcript Fold Change (HFD-F + compound 2 vs HFD-F): -4.55
- Cidec transcript Fold Change (HFD-F + compound 2 vs HFD-F): -3.63
- Cirbp transcript Fold Change (HFD-F + compound 2 vs HFD-F): 2.31
- Ckap2 transcript Fold Change (HFD-F + compound 2 vs HFD-F): -2.19
- Clec4e transcript Fold Change (HFD-F + compound 2 vs HFD-F): -2.29
- Clec4d transcript Fold Change (HFD-F + compound 2 vs HFD-F): -2.99
- Col27a1 transcript Fold Change (HFD-F + compound 2 vs HFD-F): 3.11
- Csf3 transcript Fold Change (HFD-F + compound 2 vs HFD-F): -6.94
- Cxcl2 transcript Fold Change (HFD-F + compound 2 vs HFD-F): –12.23
- Cyp17a1 transcript Fold Change (HFD-F + compound 2 vs HFD-F): -2.12
- D17H6S56E-5 transcript Fold Change (HFD-F + compound 2 vs HFD-F): -2.1
- Dbp transcript Fold Change (HFD-F + compound 2 vs HFD-F): 3.21
- Defb1 transcript Fold Change (HFD-F + compound 2 vs HFD-F): -2.44
- Derl2 transcript Fold Change (HFD-F + compound 2 vs HFD-F): -2.01
- Dhrs9 transcript Fold Change (HFD-F + compound 2 vs HFD-F): -2.42
- Dtx4 transcript Fold Change (HFD-F + compound 2 vs HFD-F): -2.1
- Dusp8 transcript Fold Change (HFD-F + compound 2 vs HFD-F): -2.11
- Egr1 transcript Fold Change (HFD-F + compound 2 vs HFD-F): -4.09
- Ell transcript Fold Change (HFD-F + compound 2 vs HFD-F): 2.35
- Elovl3 transcript Fold Change (HFD-F + compound 2 vs HFD-F): -2.38
- Elovl5 transcript Fold Change (HFD-F + compound 2 vs HFD-F): -2.41
- Ephb2 transcript Fold Change (HFD-F + compound 2 vs HFD-F): -2.63
- Epm2aip1 transcript Fold Change (HFD-F + compound 2 vs HFD-F): -2.65
- Fam57a transcript Fold Change (HFD-F + compound 2 vs HFD-F): 2.55
- Fgf21 transcript Fold Change (HFD-F + compound 2 vs HFD-F): -6.9
- Fxyd2 transcript Fold Change (HFD-F + compound 2 vs HFD-F): -2.25
- Gdf15 transcript Fold Change (HFD-F + compound 2 vs HFD-F): -3.99
- Glipr1 transcript Fold Change (HFD-F + compound 2 vs HFD-F): -2.13
- Glipr2 transcript Fold Change (HFD-F + compound 2 vs HFD-F): -2.29
- Gm16063 transcript Fold Change (HFD-F + compound 2 vs HFD-F): 2.05
- Gm30692 transcript Fold Change (HFD-F + compound 2 vs HFD-F): -2.13
- Gm31555 transcript Fold Change (HFD-F + compound 2 vs HFD-F): 2.49

From PMC9085577, “Discovery of a Potent and Orally Active Dual GPBAR1/CysLT1R Modulator for the Treatment of Metabolic Fatty Liver Disease” (Frontiers in Pharmacology, 2022)
